Values quoted from earlier work as cited in patent US20030175285A1, “Molecule of pharmaceutical interest comprising at its n-terminal a glutamic acid or a glutamine in the form of a physiologically acceptable strong acid” (priority 2000, published 2003).
Ends that are not written are not given here.

Columns and labels:
[1] = system: osteoblasts and chondrocytes; conditions: trifluoroacetate form
[2] = acetate form
melanoma = conditions: acetate form, patients suffering from a melanoma

| Substance | toxicity for cells in culture [1] | required storage temperature [2] | clinical antitumor effect (melanoma) |
| --- | --- | --- | --- |
| Calcitonin | toxic | – | – |
| EVDPIGHLY [MAGE-3] | – | −80 °C | tumor regression |
| Amylin: synthetic peptide in trifluoroacetate form (KCNTATCATQRLANFLVHSSNNFGAILSSTNVGSNTY; cysteine pairing not given here; also: trifluoroacetate salt; UniProt P10997 34-70, looked up) | toxic | – | – |
